{"source": "ChEMBL document CHEMBL3046105", "about": "“Synthesis and antihyperlipidemic efficiency of berberine-based HMG-CoA reductase inhibitor” (Med Chem Res, 2012)", "key": {"Oryctolagus cuniculus [1]": {"test_system": "Oryctolagus cuniculus", "assay": "Toxicity in hyperlipidemic New Zealand Oryctolagus cuniculus (rabbit) assessed as histopathological examination of kidney at 5 to 15 mg/kg/day, po for 2 months by hematoxylin-eosin staining analysis", "assay_type": "organism-based", "set-up": "route oral", "conditions": "in vivo"}, "Oryctolagus cuniculus [2]": {"test_system": "Oryctolagus cuniculus", "assay": "Antihyperlipidemic activity in high fat-high cholesterol fed New Zealand Oryctolagus cuniculus (rabbit) assessed as triglyceride level in blood at 15 mg/kg, po for 40 days (reference value: 2.07 +/- 0.33 mmol/l)", "assay_type": "functional"}, "Oryctolagus cuniculus [3]": {"test_system": "Oryctolagus cuniculus", "assay": "Toxicity in hyperlipidemic New Zealand Oryctolagus cuniculus (rabbit) assessed as histopathological examination of liver at 5 to 15 mg/kg/day, po for 2 months by hematoxylin-eosin staining analysis", "assay_type": "organism-based", "set-up": "route oral", "conditions": "in vivo"}, "Oryctolagus cuniculus [4]": {"test_system": "Oryctolagus cuniculus", "assay": "Antihyperlipidemic activity in high fat-high cholesterol fed New Zealand Oryctolagus cuniculus (rabbit) assessed as total cholesterol level in blood at 15 mg/kg, po for 40 days (reference value: 8.89 +/- 0.53 mmol/l)", "assay_type": "functional"}, "Oryctolagus cuniculus [5]": {"test_system": "Oryctolagus cuniculus", "assay": "Toxicity in high fat-high cholesterol fed New Zealand Oryctolagus cuniculus (rabbit) assessed as mortality at 15 mg/kg, po for 40 days", "assay_type": "organism-based", "set-up": "dose 15 mg/kg, route oral", "conditions": "in vivo, 960 h"}, "Oryctolagus cuniculus [6]": {"test_system": "Oryctolagus cuniculus", "assay": "Toxicity in hyperlipidemic New Zealand Oryctolagus cuniculus (rabbit) assessed as total bilirubin level at 5 mg/kg/day, po for 2 months (reference value: 28.45 +/- 11.55 Umol/l)", "assay_type": "organism-based", "set-up": "route oral", "conditions": "in vivo"}, "Oryctolagus cuniculus [7]": {"test_system": "Oryctolagus cuniculus", "assay": "Toxicity in hyperlipidemic New Zealand Oryctolagus cuniculus (rabbit) assessed as blood urea nitrogen level at 10 mg/kg/day, po for 2 months (reference value: 7.25 +/- 1.46 mmol/l)", "assay_type": "organism-based", "set-up": "route oral", "conditions": "in vivo"}, "Oryctolagus cuniculus [8]": {"test_system": "Oryctolagus cuniculus", "assay": "Toxicity in hyperlipidemic New Zealand Oryctolagus cuniculus (rabbit) assessed as total bilirubin level at 15 mg/kg/day, po for 2 months (reference value: 28.45 +/- 11.55 Umol/l)", "assay_type": "organism-based", "set-up": "route oral", "conditions": "in vivo"}, "Oryctolagus cuniculus [9]": {"test_system": "Oryctolagus cuniculus", "assay": "Toxicity in hyperlipidemic New Zealand Oryctolagus cuniculus (rabbit) assessed as morbidity at 5 to 15 mg/kg/day, po for 2 months", "assay_type": "organism-based", "set-up": "route oral", "conditions": "in vivo"}, "Oryctolagus cuniculus [10]": {"test_system": "Oryctolagus cuniculus", "assay": "Toxicity in hyperlipidemic New Zealand Oryctolagus cuniculus (rabbit) assessed as effect on pancreas coefficient at 5 to 15 mg/kg/day, po for 2 months", "assay_type": "organism-based", "set-up": "route oral", "conditions": "in vivo"}, "Oryctolagus cuniculus [11]": {"test_system": "Oryctolagus cuniculus", "assay": "Toxicity in hyperlipidemic New Zealand Oryctolagus cuniculus (rabbit) assessed as alanine aminotransferase level at 15 mg/kg/day, po for 2 months (reference value: 92.14 +/- 14.3 U/l)", "assay_type": "organism-based", "set-up": "route oral", "conditions": "in vivo"}, "Oryctolagus cuniculus [12]": {"test_system": "Oryctolagus cuniculus", "assay": "Antihyperlipidemic activity in high fat-high cholesterol fed New Zealand Oryctolagus cuniculus (rabbit) assessed as triglyceride level in blood at 5 mg/kg, po for 40 days (reference value: 2.07 +/- 0.33 mmol/l)", "assay_type": "functional"}, "Oryctolagus cuniculus [13]": {"test_system": "Oryctolagus cuniculus", "assay": "Toxicity in hyperlipidemic New Zealand Oryctolagus cuniculus (rabbit) assessed as total bilirubin level at 10 mg/kg/day, po for 2 months (reference value: 28.45 +/- 11.55 Umol/l)", "assay_type": "organism-based", "set-up": "route oral", "conditions": "in vivo"}, "Oryctolagus cuniculus [14]": {"test_system": "Oryctolagus cuniculus", "assay": "Antihyperlipidemic activity in high fat-high cholesterol fed New Zealand Oryctolagus cuniculus (rabbit) assessed as high-density lipoprotein-cholesterol level in blood at 15 mg/kg, po for 40 days (reference value: 0.67 +/- 0.22 mmol/l)", "assay_type": "functional"}, "Oryctolagus cuniculus [15]": {"test_system": "Oryctolagus cuniculus", "assay": "Toxicity in hyperlipidemic New Zealand Oryctolagus cuniculus (rabbit) assessed as blood urea nitrogen level at 15 mg/kg/day, po for 2 months (reference value: 7.25 +/- 1.46 mmol/l)", "assay_type": "organism-based", "set-up": "route oral", "conditions": "in vivo"}, "Oryctolagus cuniculus [16]": {"test_system": "Oryctolagus cuniculus", "assay": "Toxicity in hyperlipidemic New Zealand Oryctolagus cuniculus (rabbit) assessed ashistopathological examination of pancreas at 5 to 15 mg/kg/day, po for 2 months by hematoxylin-eosin staining analysis", "assay_type": "organism-based", "set-up": "route oral", "conditions": "in vivo"}, "Oryctolagus cuniculus [17]": {"test_system": "Oryctolagus cuniculus", "assay": "Antihyperlipidemic activity in high fat-high cholesterol fed New Zealand Oryctolagus cuniculus (rabbit) assessed as total cholesterol level in blood at 5 mg/kg, po for 40 days (reference value: 8.74 +/- 0.53 mmol/l)", "assay_type": "functional"}}}
{"compound": "CCCCCCCCCCCCCCCCc1c2c(OC)c(OC)ccc2cc2[n+]1CCc1cc3c(cc1-2)OCO3.[Cl-]", "note": "[8-HEXADECYL-BERBERINE CHLORIDE]", "values": [{"measurement": "Activity", "setting": "Oryctolagus cuniculus [1]", "value": "Non-toxic"}, {"measurement": "Activity", "setting": "Oryctolagus cuniculus [2]", "value": "1.25e+06", "unit": "nmol/L"}, {"measurement": "Activity", "setting": "Oryctolagus cuniculus [3]", "value": "Non-toxic"}, {"measurement": "Activity", "setting": "Oryctolagus cuniculus [4]", "value": "2.22e+06", "unit": "nmol/L"}, {"measurement": "Activity", "setting": "Oryctolagus cuniculus [5]", "value": "Non-toxic"}, {"measurement": "Activity", "setting": "Oryctolagus cuniculus [6]", "value": 15.6, "unit": "µmol/L"}, {"measurement": "Activity", "setting": "Oryctolagus cuniculus [7]", "value": 4.73, "unit": "mmol/L"}, {"measurement": "Activity", "setting": "Oryctolagus cuniculus [8]", "value": 12.8, "unit": "µmol/L"}, {"measurement": "Activity", "setting": "Oryctolagus cuniculus [9]", "value": "Non-toxic"}, {"measurement": "Activity", "setting": "Oryctolagus cuniculus [10]", "value": "Non-toxic"}, {"measurement": "Activity", "setting": "Oryctolagus cuniculus [11]", "value": 64.63, "unit": "U/L"}, {"measurement": "Activity", "setting": "Oryctolagus cuniculus [12]", "value": "1.95e+06", "unit": "nmol/L"}, {"measurement": "Activity", "setting": "Oryctolagus cuniculus [13]", "value": 13.3, "unit": "µmol/L"}, {"measurement": "Activity", "setting": "Oryctolagus cuniculus [14]", "value": 750000, "unit": "nmol/L"}, {"measurement": "Activity", "setting": "Oryctolagus cuniculus [15]", "value": 4.36, "unit": "mmol/L"}, {"measurement": "Activity", "setting": "Oryctolagus cuniculus [16]", "value": "Non-toxic"}, {"measurement": "Activity", "setting": "Oryctolagus cuniculus [17]", "value": "6.92e+06", "unit": "nmol/L"}]}
